Data published in PubChem BioAssay (NCI).
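The compound was tested at five concentrations on cells cultured in 96-well plates, with a 48-hour exposure period. GI50: concentration for 50% inhibition of growth. TGI: total growth inhibition.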

Assays:
Assay in all cases: inhibition of tumour cell growth, NCI panel, 48 h
[1] = system: M14 melanoma
[2] = system: SN12C renal
[3] = system: NCI-H522 lung
[4] = system: OVCAR-8 ovarian
[5] = system: SW-620 colon
[6] = system: COLO 205 colon
[7] = system: SF-295 CNS
[8] = system: UACC-257 melanoma
[9] = system: KM12 colon
[10] = system: U251 CNS
[11] = system: MDA-MB-231 breast
[12] = system: MDA-MB-435
[13] = system: HS 578T breast
[14] = system: OVCAR-3 ovarian
[15] = system: RPMI-8226 leukemia
[16] = system: UACC-62 melanoma
[17] = system: HOP-62 NSCLC
[18] = system: LOX IMVI melanoma
[19] = system: HOP-92 NSCLC
[20] = system: SNB-19 CNS
[21] = system: CCRF-CEM leukemia
[22] = system: NCI/ADR-RES ovarian
[23] = system: A549 NSCLC
[24] = system: 786-0 renal
[25] = system: SK-MEL-5 melanoma
[26] = system: NCI-H460 lung
[27] = system: HCC-2998 colon
[28] = system: SK-OV-3 ovarian
[29] = system: RXF 393 renal
[30] = system: T-47D breast
[31] = system: OVCAR-4 ovarian
[32] = system: SK-MEL-28 melanoma
[33] = system: SF-268 CNS
[34] = system: EKVX NSCLC
[35] = system: SK-MEL-2 melanoma
[36] = system: OVCAR-5 ovarian
[37] = system: MALME-3M melanoma
[38] = system: HT29 colon
[39] = system: MCF7 breast
[40] = system: TK-10 renal
[41] = system: PC-3 prostate
[42] = system: NCI-H226 lung
[43] = system: SNB-75 CNS
[44] = system: ACHN renal
[45] = system: DU-145 prostate
[46] = system: SF-539 CNS
[47] = system: HL-60(TB) leukemia
[48] = system: BT-549 breast
[49] = system: MOLT-4 leukemia
[50] = system: CAKI-1 renal
[51] = system: HCT-116 colon
[52] = system: NCI-H23 lung
[53] = system: UO-31 renal
[54] = system: A498 renal
[55] = system: IGROV1 ovarian
[56] = system: SR leukemia
[57] = system: K-562 leukemia
[58] = system: HCT-15 colon

Compound: Cc1ccc2c(n1)C(=O)C(Cl)=C(Nc1cc(C(F)(F)F)cc(C(F)(F)F)c1)C2=O
- GI50 [1]: 4.24 µM
- TGI [1]: 17.9 µM
- GI50 [2]: 4.55 µM
- TGI [2]: > 100 µM
- GI50 [3]: 1.95 µM
- TGI [3]: 5.97 µM
- GI50 [4]: 4.16 µM
- TGI [4]: 24.2 µM
- GI50 [5]: 2.29 µM
- TGI [5]: 5.32 µM
- GI50 [6]: 1.93 µM
- TGI [6]: 4.31 µM
- GI50 [7]: 12.6 µM
- TGI [7]: 25.8 µM
- GI50 [8]: 1.68 µM
- TGI [8]: 3.3 µM
- GI50 [9]: 12.3 µM
- TGI [9]: 28.9 µM
- GI50 [10]: 10.3 µM
- TGI [10]: 23.5 µM
- GI50 [11]: 3.54 µM
- TGI [11]: 14 µM
- GI50 [12]: 4.67 µM
- TGI [12]: 16.4 µM
- GI50 [13]: 10.6 µM
- TGI [13]: 76.4 µM
- GI50 [14]: 1.61 µM
- TGI [14]: 3.02 µM
- GI50 [15]: 1.58 µM
- TGI [15]: 5.14 µM
- GI50 [16]: 4.97 µM
- TGI [16]: 19.3 µM
- GI50 [17]: 15.9 µM
- TGI [17]: 31.3 µM
- GI50 [18]: 1.6 µM
- TGI [18]: 3.49 µM
- GI50 [19]: 1.57 µM
- TGI [19]: 3.51 µM
- GI50 [20]: 13.8 µM
- TGI [20]: 40.1 µM
- GI50 [21]: 0.651 µM
- TGI [21]: 3.59 µM
- GI50 [22]: 2.74 µM
- TGI [22]: 8.6 µM
- GI50 [23]: 16.9 µM
- TGI [23]: 38 µM
- GI50 [24]: 1.72 µM
- TGI [24]: 3.36 µM
- GI50 [25]: 3.28 µM
- TGI [25]: 11.4 µM
- GI50 [26]: 13.7 µM
- TGI [26]: 36.8 µM
- GI50 [27]: 4.61 µM
- TGI [27]: 18.2 µM
- GI50 [28]: 13.9 µM
- TGI [28]: 27.1 µM
- GI50 [29]: 1.46 µM
- TGI [29]: 2.82 µM
- GI50 [30]: 1.63 µM
- TGI [30]: 5.18 µM
- GI50 [31]: 1.44 µM
- TGI [31]: 2.79 µM
- GI50 [32]: 2.21 µM
- TGI [32]: 4.29 µM
- GI50 [33]: 6.38 µM
- TGI [33]: 23.5 µM
- GI50 [34]: 2.22 µM
- TGI [34]: 5.45 µM
- GI50 [35]: 3.96 µM
- TGI [35]: 15.6 µM
- GI50 [36]: 19.4 µM
- TGI [36]: 38.4 µM
- GI50 [37]: 1.67 µM
- TGI [37]: 3.58 µM
- GI50 [38]: 2.39 µM
- TGI [38]: 6.18 µM
- GI50 [39]: 2.13 µM
- TGI [39]: 5.45 µM
- GI50 [40]: 1.88 µM
- TGI [40]: 3.31 µM
- GI50 [41]: 5.29 µM
- TGI [41]: 20 µM
- GI50 [42]: 5.36 µM
- TGI [42]: 41.5 µM
- GI50 [43]: 9.23 µM
- TGI [43]: 22.6 µM
- GI50 [44]: 1.92 µM
- TGI [44]: 3.42 µM
- GI50 [45]: 2.6 µM
- TGI [45]: 6.47 µM
- GI50 [46]: 5.4 µM
- TGI [46]: 18.3 µM
- GI50 [47]: 0.547 µM
- TGI [47]: 2.58 µM
- GI50 [48]: 1.86 µM
- TGI [48]: 6.61 µM
- GI50 [49]: 0.305 µM
- TGI [49]: 1.05 µM
- GI50 [50]: 1.5 µM
- TGI [50]: 2.94 µM
- GI50 [51]: 1.43 µM
- TGI [51]: 2.94 µM
- GI50 [52]: 1.92 µM
- TGI [52]: 4.94 µM
- GI50 [53]: 1.41 µM
- TGI [53]: 2.83 µM
- GI50 [54]: 8.72 µM
- TGI [54]: 22 µM
- GI50 [55]: 3.6 µM
- TGI [55]: 14.1 µM
- GI50 [56]: 0.31 µM
- TGI [56]: 1.98 µM

Compound: O=C(NNc1nc2cc(F)cc(F)c2n2cccc12)c1cnccn1
- GI50 [1]: 0.279 µM
- TGI [1]: 2.85 µM
- GI50 [2]: 0.641 µM
- TGI [2]: 15 µM
- GI50 [3]: 0.392 µM
- TGI [3]: 7.5 µM
- GI50 [4]: 0.279 µM
- TGI [4]: 4.91 µM
- GI50 [5]: 0.402 µM
- TGI [5]: 14.4 µM
- GI50 [6]: 0.324 µM
- TGI [6]: 4.56 µM
- GI50 [7]: 0.25 µM
- TGI [7]: 6.45 µM
- GI50 [8]: 0.587 µM
- TGI [8]: 3.43 µM
- GI50 [9]: 0.311 µM
- TGI [9]: 12.6 µM
- GI50 [10]: 0.172 µM
- TGI [10]: 8.92 µM
- GI50 [11]: 0.807 µM
- TGI [11]: 12.3 µM
- GI50 [12]: 0.61 µM
- TGI [12]: 13.5 µM
- GI50 [13]: 1.74 µM
- TGI [13]: 24.1 µM
- GI50 [15]: 0.379 µM
- TGI [15]: > 100 µM
- GI50 [16]: 0.407 µM
- TGI [16]: 3.85 µM
- GI50 [17]: 0.147 µM
- TGI [17]: 4.17 µM
- GI50 [18]: 0.211 µM
- TGI [18]: 5.93 µM
- GI50 [19]: 0.851 µM
- TGI [19]: 7.35 µM
- GI50 [57]: 0.364 µM
- TGI [57]: > 100 µM
- GI50 [20]: 0.426 µM
- TGI [20]: 16.9 µM
- GI50 [21]: 0.163 µM
- TGI [21]: > 100 µM
- GI50 [22]: 0.278 µM
- TGI [22]: 5.22 µM
- GI50 [23]: 0.288 µM
- TGI [23]: 11.3 µM
- GI50 [24]: 0.371 µM
- TGI [24]: 4.02 µM
- GI50 [25]: 1.05 µM
- TGI [25]: 5.76 µM
- GI50 [26]: 0.178 µM
- TGI [26]: 3.01 µM
- GI50 [27]: 0.564 µM
- TGI [27]: 14.9 µM
- GI50 [58]: 0.106 µM
- TGI [58]: 21.3 µM
- GI50 [28]: 0.539 µM
- TGI [28]: 7.27 µM
- GI50 [29]: 0.659 µM
- TGI [29]: 4.77 µM
- GI50 [30]: 0.403 µM
- TGI [30]: 12.6 µM
- GI50 [31]: 0.302 µM
- TGI [31]: 8.99 µM
- GI50 [32]: 0.549 µM
- TGI [32]: 13.5 µM
- GI50 [33]: 0.365 µM
- TGI [33]: 14.5 µM
- GI50 [34]: 0.32 µM
- TGI [34]: 12 µM
- GI50 [35]: 0.893 µM
- TGI [35]: 4.37 µM
- GI50 [36]: 0.715 µM
- TGI [36]: 14.4 µM
- GI50 [37]: 0.904 µM
- TGI [37]: 10.4 µM
- GI50 [38]: 0.571 µM
- TGI [38]: 8.73 µM
- GI50 [39]: 0.353 µM
- TGI [39]: 7.61 µM
- GI50 [40]: 0.613 µM
- TGI [40]: 10.5 µM
- GI50 [41]: 0.448 µM
- TGI [41]: 13.5 µM
- GI50 [42]: 1.12 µM
- TGI [42]: 6.89 µM
- GI50 [43]: 1.13 µM
- TGI [43]: 9.37 µM
- GI50 [44]: 0.239 µM
- TGI [44]: 10.6 µM
- GI50 [45]: 0.457 µM
- TGI [45]: 13.7 µM
- GI50 [46]: 0.436 µM
- TGI [46]: 10.3 µM
- GI50 [47]: 0.263 µM
- GI50 [48]: 1.12 µM
- TGI [48]: 7.68 µM
- GI50 [49]: 0.291 µM
- TGI [49]: > 100 µM
- GI50 [50]: 0.34 µM
- TGI [50]: 6.66 µM
- GI50 [51]: 0.297 µM
- TGI [51]: 6.79 µM
- GI50 [52]: 0.872 µM
- TGI [52]: 15.8 µM
- GI50 [53]: 0.107 µM
- TGI [53]: 2.93 µM
- GI50 [54]: 1.37 µM
- TGI [54]: 5.57 µM
- GI50 [55]: 0.206 µM
- TGI [55]: 10.7 µM
- GI50 [56]: 0.0801 µM
- TGI [56]: > 87.8 µM

Compound: COc1ccc(-c2nc3cc(Cl)c(Cl)cc3n2CC(=O)N=Nc2c(O)[nH]c3ccc(Br)cc23)cc1
- GI50 [13]: 2.05 µM
- TGI [13]: 5.72 µM
- GI50 [29]: 1.87 µM
- TGI [29]: 3.71 µM
- GI50 [33]: 3.62 µM
- TGI [33]: > 100 µM
- GI50 [42]: 3.75 µM
- TGI [42]: > 100 µM
- GI50 [43]: 2.11 µM
- TGI [43]: 12.4 µM
- GI50 [48]: 6.73 µM
- TGI [48]: > 100 µM
